{"source": "patent US11136336B2", "about": "“Thienopyrimidones” (Boehringer Ingelheim International GmbH, priority 2019, dated 2021)", "key": {"human TRPA1 ion channel": {"biological_target": "human TRPA1 ion channel (Homo sapiens (Human), UniProt O75762)", "sequence (O75762 whole entry)": "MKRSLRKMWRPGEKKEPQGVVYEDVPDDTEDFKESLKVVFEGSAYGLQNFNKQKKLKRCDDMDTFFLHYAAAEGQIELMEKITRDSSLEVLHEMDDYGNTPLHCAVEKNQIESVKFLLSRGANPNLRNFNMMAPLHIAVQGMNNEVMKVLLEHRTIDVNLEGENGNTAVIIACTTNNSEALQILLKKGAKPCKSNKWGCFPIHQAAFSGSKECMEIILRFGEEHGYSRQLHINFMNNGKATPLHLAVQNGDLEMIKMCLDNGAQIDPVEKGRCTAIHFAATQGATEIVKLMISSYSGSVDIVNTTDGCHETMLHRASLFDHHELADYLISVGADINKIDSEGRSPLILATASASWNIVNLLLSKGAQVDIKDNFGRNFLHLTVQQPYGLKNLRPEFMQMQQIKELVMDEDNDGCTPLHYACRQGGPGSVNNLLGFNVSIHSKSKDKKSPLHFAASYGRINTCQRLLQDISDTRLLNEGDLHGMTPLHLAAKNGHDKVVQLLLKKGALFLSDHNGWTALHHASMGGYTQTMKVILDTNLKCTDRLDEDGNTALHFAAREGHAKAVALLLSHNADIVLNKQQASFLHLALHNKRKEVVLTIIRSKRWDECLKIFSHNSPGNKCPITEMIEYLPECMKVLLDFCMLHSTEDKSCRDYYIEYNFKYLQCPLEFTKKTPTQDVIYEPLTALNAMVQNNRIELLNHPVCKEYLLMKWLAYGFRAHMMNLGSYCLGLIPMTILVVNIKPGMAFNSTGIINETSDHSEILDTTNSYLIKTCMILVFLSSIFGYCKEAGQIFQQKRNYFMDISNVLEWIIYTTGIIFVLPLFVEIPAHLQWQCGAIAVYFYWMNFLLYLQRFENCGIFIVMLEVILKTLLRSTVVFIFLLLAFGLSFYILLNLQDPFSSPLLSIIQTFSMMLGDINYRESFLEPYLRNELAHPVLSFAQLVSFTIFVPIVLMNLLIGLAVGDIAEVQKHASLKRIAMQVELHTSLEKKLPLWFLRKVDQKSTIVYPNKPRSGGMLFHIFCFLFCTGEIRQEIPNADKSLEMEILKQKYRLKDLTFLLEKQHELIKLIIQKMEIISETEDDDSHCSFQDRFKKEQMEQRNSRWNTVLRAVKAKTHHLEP", "experiment": "Assay A: TRPA1 cell assay (FLIPR, AITC-induced intracellular calcium)", "format": "cell-based", "conditions": "HEK293 cells over-expressing human TRPA1; agonist AITC 10 μM; FLIPRtetra; read-out: hTRPA1 IC50", "description": "A human HEK293 cell line over-expressing the human TRPA1 ion channel (Perkin Elmer, Product No. AX-004-PCL) was used as a test system for compound efficacy and potency. Compound activity was determined by measuring the effect of compounds on intracellular calcium concentration induced by AITC (Allylisothiocyanat) agonism in a FLIPRtetra system (Molecular Devices).\nThe cells were obtained as frozen cells in cryo-vials and stored until use at −150° C. Cells were grown in culture medium (MEM/EBSS medium with 10% FCS and 0.4 mg/ML Geneticin). […] For sub-culturing cells were detached from flasks by Versene. At the day before the assay, cells were detached, washed twice with medium (MEM/EBSS medium with 10% FCS) and 20000 cells in 20p/well were seeded to Poly D-Lysin biocoated 384-well plates (black, clear bottom, Cat. 356697) from Corning. Plates were incubated for 24 hours at 37° C./5% CO2 before use in the assay.\nThe test compounds were dissolved in 100% DMSO at a concentration of 10 mM and in a first step diluted in DMSO to a concentration of 5 mM, followed by serial dilution steps in 100% DMSO. Dilution factor and number of dilution steps may vary according to needs. Typically 8 different concentrations by 1:5 dilutions were prepared, further intermediate dilutions (1:20) of the substances were carried out with HBSS/HEPES buffer (1×HEPES, Cat.14065 from Gibco, 20 mM HEPES, Cat. 83264 from SIGMA, 0.1% BSA Cat.11926 from Invitrogen, pH 7,4\nAt the assay day cells were washed 3× with assay puffer, 20 μL buffer remained in the wells after washing. 10 μL Ca6 kit (Cat.R8191 MolecularDevices) loading buffer in HBSS/HEPES was added to the cells and the plates were incubated with lid for 120 minutes at 37°/5% CO2. 10 μL of compound or controls in HBSS/HEPES buffer/5% DMSO from the intermediate dilution plate were carefully added to the wells. […] Finally 10 μL of the agonist AITC 50 μM dissolved in HBSS/HEPES buffer/0.05% DMSO (final concentration 10 μM) was added to the wells followed by an additional read on the FLIPRtetra device for 10 minutes. The area under the signal curve (AUC) after AITC addition was used for IC50/% inhibition calculations\nEach assay microtiter plate contained wells with vehicle (1% DMSO) controls instead of compound as controls for AITC induced luminescence (100% CTL; high controls) and wells with vehicle controls without AITC as controls for non-specific changes in luminescence (0% CTL; low controls).\nThe analysis of the data was performed by the calculation of the area under signal curve of the individual wells. Based on this values the % value for the measurement of each substance concentration was calculated (AUC(sample)−AUC(low))*100/(AUC(high)−AUC(low)) using MegaLab software (in house development). The IC50 values were calculated from the % control values using MegaLab software. Calculation: [y=(ad)/(1+(x/c)^b)+d], a=low value, d=high value; x=conc M; c=IC50 M; b=hill; y=% ctrl"}, "[1]": {"experiment": "Assay B: Microsomal clearance", "format": "in vitro ADME", "conditions": "pooled human liver microsomes, 1 mg/ml protein, 1 μM test compound, 37° C.", "description": "Assay B: Microsomal Clearance:\nThe metabolic degradation of the test compound is assayed at 37° C. with pooled liver microsomes. The final incubation volume of 100 μl per time point contains TRIS buffer pH 7.6 at RT (0.1 M), magnesium chloride (5 mM), microsomal protein (1 mg/ml) and the test compound at a final concentration of 1 μM.\nFollowing a short preincubation period at 37° C., the reactions are initiated by addition of beta-nicotinamide adenine dinucleotide phosphate, reduced form (NADPH, 1 mM) and terminated by transferring an aliquot into solvent after different time points (0, 5, 15, 30, 60 min). Additionally, the NADPH-independent degradation is monitored in incubations without NADPH, terminated at the last time point. The [%] remaining test compound after NADPH independent incubation is reflected by the parameter c(control) (metabolic stability). The quenched incubations are pelleted by centrifugation (10000 g, 5 min).\nAn aliquot of the supernatant is assayed by LC-MS/MS for the amount of parent compound. The half-life (t1/2 INVITRO) is determined by the slope of the semilogarithmic plot of the concentration-time profile."}, "[2]": {"experiment": "Assay C: Hepatocyte clearance", "format": "in vitro ADME", "conditions": "human hepatocyte suspension, 1 μM test compound, six hours", "description": "Assay C: Hepatocyte Clearance\nThe metabolic degradation of the test compound is assayed in a hepatocyte suspension. Hepatocytes (cryopreserved) are incubated in. Dulbecco's modified eagle medium (supplemented with 3.5 μg glucagon/500 mL, 2.5 mg insulin/500 mL and 3.75 mg/500 mL hydrocortison) containing 5% or 50% species serum.\nFollowing a 30 min preincubation in an incubator (37° C., 10% CO2) 5 μl of test compound solution (80 μM; from 2 mM in DMSO stock solution diluted 1:25 with medium) are added into 395 μl hepatocyte suspension (cell density in the range 0.25-5 Mio cells/mL depending on the species, typically 1 Mio cells/mL; final concentration of test compound 1 μM, final DMSO concentration 0.05%).\nThe cells are incubated for six hours (incubator, orbital shaker) and samples (25 μl) are taken at 0, 0.5, 1, 2, 4 and 6 hours. Samples are transferred into acetonitrile and pelleted by centrifugation (5 min). The supernatant is transferred to a new 96-deepwell plate, evaporated under nitrogen and resuspended.\nDecline of parent compound is analyzed by HPLC-MS/MS\nCLint is calculated as follows CL_[…]=Dose/AUC=(C0/CD)/(AUD+clast/k)×1000/60. C0: initial concentration in the incubation [μM], CD: cell density of vital cells [10e6cells/mL], AUD: area under the data [μM×h], clast: concentration of last data point [μM], k: slope of the regression line for parent decline [h−1].\nThe calculated in vitro hepatic intrinsic clearance can be scaled up to the intrinsic in vivo hepatic Clearance and used to predict hepatic in vivo blood clearance (CL) by the use of a liver model (well stirred model)."}}}
{"smiles": "Cc1c(C(N)=O)sc2ncn(Cc3nc(C[C@H](O)c4ccc(Cl)cc4)no3)c(=O)c12", "note": "[Example 1, 3-({3-[(2S)-2-(4-chlorophenyl)-2-hydroxyethyl]-1,2,4-oxadiazol-5-yl}methyl)-5-methyl-4-oxo-3H,4H-thieno[2,3-d]pyrimidine-6-carboxamide]", "values": [{"measurement": "IC50", "setting": "human TRPA1 ion channel", "value": 0.013, "unit": "µM"}, {"measurement": "human LM [% Qh]", "setting": "[1]", "value": 29, "unit": "% Qh"}, {"measurement": "human Hepatocytes [% Qh]", "setting": "[2]", "value": 25, "unit": "% Qh"}]}
{"smiles": "Cc1ccc([C@@H](O)Cc2noc(Cn3cnc4sc(C(N)=O)c(C)c4c3=O)n2)cc1", "note": "[Example 2]", "values": [{"measurement": "IC50", "setting": "human TRPA1 ion channel", "value": 0.02, "unit": "µM"}, {"measurement": "human LM [% Qh]", "setting": "[1]", "value": "<23", "unit": "% Qh"}, {"measurement": "human Hepatocytes [% Qh]", "setting": "[2]", "value": 29, "unit": "% Qh"}]}
{"smiles": "Cc1c(C(N)=O)sc2ncn(Cc3nc(C[C@H](O)c4cc5ccccc5o4)no3)c(=O)c12", "note": "[Example 3]", "values": [{"measurement": "IC50", "setting": "human TRPA1 ion channel", "value": 0.019, "unit": "µM"}, {"measurement": "human LM [% Qh]", "setting": "[1]", "value": "<23", "unit": "% Qh"}, {"measurement": "human Hepatocytes [% Qh]", "setting": "[2]", "value": 36, "unit": "% Qh"}]}
{"smiles": "Cc1c(C(N)=O)sc2ncn(Cc3nc(C[C@H](O)c4ccc(F)cc4)no3)c(=O)c12", "note": "[Example 4]", "values": [{"measurement": "IC50", "setting": "human TRPA1 ion channel", "value": 0.033, "unit": "µM"}, {"measurement": "human LM [% Qh]", "setting": "[1]", "value": "<23", "unit": "% Qh"}, {"measurement": "human Hepatocytes [% Qh]", "setting": "[2]", "value": 29, "unit": "% Qh"}]}
{"smiles": "Cc1c(C(N)=O)sc2ncn(Cc3nc(C[C@H](O)c4ccc(F)c(F)c4)no3)c(=O)c12", "note": "[Example 5]", "values": [{"measurement": "IC50", "setting": "human TRPA1 ion channel", "value": 0.048, "unit": "µM"}, {"measurement": "human LM [% Qh]", "setting": "[1]", "value": "<23", "unit": "% Qh"}, {"measurement": "human Hepatocytes [% Qh]", "setting": "[2]", "value": 37, "unit": "% Qh"}]}
{"smiles": "Cc1c(C(N)=O)sc2ncn(Cc3nc(C[C@H](O)c4cc(F)cc(F)c4)no3)c(=O)c12", "note": "[Example 6]", "values": [{"measurement": "IC50", "setting": "human TRPA1 ion channel", "value": 0.048, "unit": "µM"}, {"measurement": "human LM [% Qh]", "setting": "[1]", "value": "<23", "unit": "% Qh"}, {"measurement": "human Hepatocytes [% Qh]", "setting": "[2]", "value": 23, "unit": "% Qh"}]}
{"smiles": "Cc1c(C(N)=O)sc2ncn(Cc3nc(C[C@H](O)c4ccc5c(c4)OC(F)(F)O5)no3)c(=O)c12", "note": "[Example 7]", "values": [{"measurement": "IC50", "setting": "human TRPA1 ion channel", "value": 0.034, "unit": "µM"}, {"measurement": "human LM [% Qh]", "setting": "[1]", "value": 23, "unit": "% Qh"}, {"measurement": "human Hepatocytes [% Qh]", "setting": "[2]", "value": 39, "unit": "% Qh"}]}
{"smiles": "Cc1c(C(N)=O)sc2ncn(Cc3nc(C[C@H](O)c4ccc5c(c4)OCO5)no3)c(=O)c12", "note": "[Example 8]", "values": [{"measurement": "IC50", "setting": "human TRPA1 ion channel", "value": 0.056, "unit": "µM"}, {"measurement": "human LM [% Qh]", "setting": "[1]", "value": "<23", "unit": "% Qh"}, {"measurement": "human Hepatocytes [% Qh]", "setting": "[2]", "value": 24, "unit": "% Qh"}]}
{"smiles": "CNC(=O)c1sc2ncn(Cc3nc(C[C@H](O)c4ccc5c(c4)OCO5)no3)c(=O)c2c1C", "note": "[Example 9]", "values": [{"measurement": "IC50", "setting": "human TRPA1 ion channel", "value": 0.078, "unit": "µM"}, {"measurement": "human LM [% Qh]", "setting": "[1]", "value": 29, "unit": "% Qh"}, {"measurement": "human Hepatocytes [% Qh]", "setting": "[2]", "value": 24, "unit": "% Qh"}]}
{"smiles": "CNC(=O)c1sc2ncn(Cc3nc(C[C@H](O)c4ccc(F)cc4)no3)c(=O)c2c1C", "note": "[Example 10]", "values": [{"measurement": "human LM [% Qh]", "setting": "[1]", "value": "<23", "unit": "% Qh"}, {"measurement": "human Hepatocytes [% Qh]", "setting": "[2]", "value": 25, "unit": "% Qh"}]}
{"smiles": "CNC(=O)c1sc2ncn(Cc3nc(C[C@H](O)c4ccc(Cl)cc4)no3)c(=O)c2c1C", "note": "[Example 11]", "values": [{"measurement": "IC50", "setting": "human TRPA1 ion channel", "value": 0.01, "unit": "µM"}, {"measurement": "human LM [% Qh]", "setting": "[1]", "value": "<23", "unit": "% Qh"}, {"measurement": "human Hepatocytes [% Qh]", "setting": "[2]", "value": 29, "unit": "% Qh"}]}
{"smiles": "Cc1c(C(=O)NCC(F)F)sc2ncn(Cc3nc(C[C@H](O)c4ccc(Cl)cc4)no3)c(=O)c12", "note": "[Example 12]", "values": [{"measurement": "IC50", "setting": "human TRPA1 ion channel", "value": 0.015, "unit": "µM"}, {"measurement": "human LM [% Qh]", "setting": "[1]", "value": 24, "unit": "% Qh"}, {"measurement": "human Hepatocytes [% Qh]", "setting": "[2]", "value": 36, "unit": "% Qh"}]}
{"smiles": "Cc1c(C(=O)NCC(C)(C)O)sc2ncn(Cc3nc(C[C@H](O)c4ccc(Cl)cc4)no3)c(=O)c12", "note": "[Example 13]", "values": [{"measurement": "IC50", "setting": "human TRPA1 ion channel", "value": 0.037, "unit": "µM"}, {"measurement": "human LM [% Qh]", "setting": "[1]", "value": "<23", "unit": "% Qh"}, {"measurement": "human Hepatocytes [% Qh]", "setting": "[2]", "value": 18, "unit": "% Qh"}]}
{"smiles": "CNC(=O)c1sc2ncn(Cc3nc(C[C@H](O)c4ccc(F)c(F)c4)no3)c(=O)c2c1C", "note": "[Example 14]", "values": [{"measurement": "IC50", "setting": "human TRPA1 ion channel", "value": 0.033, "unit": "µM"}, {"measurement": "human LM [% Qh]", "setting": "[1]", "value": "<23", "unit": "% Qh"}, {"measurement": "human Hepatocytes [% Qh]", "setting": "[2]", "value": 24, "unit": "% Qh"}]}
{"smiles": "O=C1NCCc2c1sc1ncn(Cc3nc(C[C@H](O)c4ccc(Cl)cc4)no3)c(=O)c21", "note": "[Example 15]", "values": [{"measurement": "IC50", "setting": "human TRPA1 ion channel", "value": 0.009, "unit": "µM"}, {"measurement": "human LM [% Qh]", "setting": "[1]", "value": "<23", "unit": "% Qh"}, {"measurement": "human Hepatocytes [% Qh]", "setting": "[2]", "value": 31, "unit": "% Qh"}]}
{"smiles": "NC(=O)c1sc2ncn(Cc3nc(C[C@H](O)c4ccc(Cl)cc4)no3)c(=O)c2c1Cl", "note": "[Example 16]", "values": [{"measurement": "IC50", "setting": "human TRPA1 ion channel", "value": 0.016, "unit": "µM"}, {"measurement": "human LM [% Qh]", "setting": "[1]", "value": "<23", "unit": "% Qh"}, {"measurement": "human Hepatocytes [% Qh]", "setting": "[2]", "value": 39, "unit": "% Qh"}]}
